Assays:
[1] = tested on: bovine pulmonary endothelial cells; assay: growth inhibition of bovine pulmonary endothelial cells in vitro; format: cell-based; settings: 1 μg/ml
[2] = tested on: human umbilical venous endothelial cells; assay: LPS/TNF-α-induced neutrophil adherence to human umbilical venous endothelial cells; settings: 10, 1.0 or 0.1 μg; three different subjects
Description: In these experiments, approximately 2×10^5 human umbilical venous cells (passage 2-6) were plated per well. The cells were grown in serum-free media overnight. For induction, either TNF-α (40 ng/ml) was added to endothelial cells for 6 hours prior to adding neutrophils or LPS (100 ng/ml) was added for 4-6 hours. […] After activation of the endothelial cells, approximately 50×10^6 neutrophils were added per well. The plates were gently rocked for 30 minutes at room temperature, followed by removal of the media and washing in serum-free media three times and then photographing of each well. […] A monoclonal Ab to ICAM-1 was a positive control.

rabbit NHE3 = rabbit NHE3 (Oryctolagus cuniculus, UniProt P26432); settings: 5 μg/ml
Description: Internal pH was measured either following acid loading or in the absence of an acid-loading challenge, with the results shown in FIGS. 1A and 1B.
Specifically, PS120 fibroblasts transfected with rabbit NHE3 were grown in supplemented Dulbecco's-modified Eagle's medium as described by Levine et al., J. Biol. Chem. 268, 1993, 25527-25535. […] For cells not acid-preloaded, the actual internal pH value was monitored as a function of time following addition of squalamine, with the results depicted in FIG. 1B.
PS120 fibroblasts transfected with rabbit NHE3 were grown and acid preloaded by exposure to 40 mM NH4 Cl as described above in conjunction with FIGS. 1A and 1B. Internal cellular pH changes expressed as the rate of pH recovery as a function of restored extracellular sodium ion concentration following exposure to 10 μg/ml of the compound were assayed with the fluorescent dye BCECF-AM as described above.

Murine B16 melanoma = assay: growth inhibition in vitro; format: cell-based; settings: except at very high concentrations
Text: As set forth in Table 7 below, all malignant tumors evaluated in tissue culture, endothelial cells and vascular smooth muscle cells were sensitive to inhibition. Thus, compound 1436 has application in the control of growth factor dependent proliferation of many types of tissue.

human melanoma 1205Lu = assay: growth of human melanoma 1205Lu in immunocompromised RAG-1 mice; format: in vivo, RAG-1 mice (human tumor)
Text: As apparent from FIG. 5, melanoma 1205Lu develops aggressively in RAG-1 mice after implantation.

Sequence of rabbit NHE3 (P26432 30-832): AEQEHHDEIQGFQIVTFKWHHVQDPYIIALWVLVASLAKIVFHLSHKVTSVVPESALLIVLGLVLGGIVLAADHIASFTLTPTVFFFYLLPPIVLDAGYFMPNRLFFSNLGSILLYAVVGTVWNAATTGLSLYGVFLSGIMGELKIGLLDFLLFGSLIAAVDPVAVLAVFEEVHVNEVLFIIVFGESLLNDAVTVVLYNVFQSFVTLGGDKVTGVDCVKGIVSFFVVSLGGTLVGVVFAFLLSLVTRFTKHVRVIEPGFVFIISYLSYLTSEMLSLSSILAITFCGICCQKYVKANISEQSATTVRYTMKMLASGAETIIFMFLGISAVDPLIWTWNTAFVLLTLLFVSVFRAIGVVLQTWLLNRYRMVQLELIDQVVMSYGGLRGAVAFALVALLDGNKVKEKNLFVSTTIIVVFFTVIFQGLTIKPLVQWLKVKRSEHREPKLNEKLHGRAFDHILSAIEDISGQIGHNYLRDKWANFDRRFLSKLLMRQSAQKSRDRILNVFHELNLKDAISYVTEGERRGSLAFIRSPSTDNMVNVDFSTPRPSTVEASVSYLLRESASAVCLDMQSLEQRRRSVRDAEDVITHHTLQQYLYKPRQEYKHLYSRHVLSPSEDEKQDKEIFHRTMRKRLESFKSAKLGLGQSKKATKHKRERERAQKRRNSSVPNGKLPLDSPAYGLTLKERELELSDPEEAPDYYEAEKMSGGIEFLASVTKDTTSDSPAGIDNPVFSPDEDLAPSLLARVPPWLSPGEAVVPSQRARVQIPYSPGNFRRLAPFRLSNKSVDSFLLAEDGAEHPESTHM

## CC(C)[C@@H](CC[C@@H](C)[C@H]1CC[C@H]2[C@@H]3[C@H](O)C[C@H]4C[C@@H](NCCCNCCCCN)CC[C@]4(C)[C@H]3CC[C@]12C)OS(=O)(=O)O [Squalamine, squalamine]
[1]
  growth of bovine pulmonary artery endothelial cells (BPE): inhibited the growth
[2]
  inhibition of neutrophil adherence: no inhibition
Rabbit NHE3; acid-preloaded by 40 mM NH4Cl
  inhibition of NHE3: inhibited NHE3 with respect to proton concentration at both Km and Vmax levels
Rabbit NHE3; cells not acid-preloaded
  resting pH: the resting pH of these cells was also inhibited
Murine B16 melanoma
  cytostatic activity against B16 in culture: minimal cytostatic activity against B16 in culture
Human melanoma 1205Lu; 10, 20, 40 mg/kg/d, after tumors reached about 0.1 ml
  suppression of melanoma 1205Lu growth: found to suppress the growth of melanoma 1205Lu in RAG-1 mice in a dose-dependent fashion
Human melanoma 1205Lu; in vivo
  tumor growth after cessation of treatment: tumor growth continued at a rate similar to untreated controls

From US5795885A, “Method of inhibiting profileration of cells by administering an aminosterol compound” (priority 1995, dated 1998)
